Measured values reported in US20140371165A1, “Identification of NSC23925 Isomers to Reverse Multidrug Resistance in Human Cancers” (priority 2012, published 2014).

Columns and labels:
MCF-7adr = experiment: MTT cytotoxicity assay and reversal of MDR in MCF-7adr; format: cell-based, human; details: Homo sapiens, NCI/ADR-RES, 144 h, without NSC23925b, MTT, 6 days, read-out: IC50 of chemotherapy drug alone
Source text: (§1) A panel of parental cancer cell line and their daughter resistant cell lines, displaying MDR phenotype were used in this study. Human ovarian cancer cell line SKOV-3, breast cancer cell line MCF-7 and colon cancer cell line SW480, the osteosarcoma cell line U-2OS, KHOS, uterine sarcoma cell line MESSA and its doxorubicin selected drug resistant cell line MESSA/Dx5, non-small cell lung cancer cell line H-69 and its doxorubicin selected drug resistant cell line H-69AR (overexpress MRP1) were obtained from the ATCC (Rockville, Md.). Dr. Efstathios Gonos (Institute of Biological Research & Biotechnology, Athens, Greece) provided the doxorubicin resistant U-2OS R2 (referred in the text below as U-2OSDR), KHOS R2 cell lines. Dr. Erasmus Schneider (Wadsworth Center, Albany) provided the mitoxantrane resistant breast cancer MCF-7/MX (overexpress BCRP) cell line. All the cell lines were cultured in RPMI 1640 (Invitrogen, Carlsbad, Calif.) supplemented with 10% fetal bovine serum, 100-units/ml penicillin and 100 μg/ml streptomycin (Invitrogen). Cells were incubated at 37° C. in 5% CO2-95% air atmosphere and passaged when near confluent monolayers were achieved using 2% trypsin-EDTA solution. […] The fresh chemotherapy drugs were obtained from the pharmacy at the Massachusetts General Hospital and stored at −20° C.
(§2) To evaluate for reversal of Pgp-mediated MDR, SKOV-3TR, MCF-7adr and SW480TR cell lines were seeded into 96-well tissue culture plate at 2,000 cells per well with varying concentrations of chemotherapy drugs and NSC23925b for 6 days. Cell proliferation IC50 (concentration required for 50% inhibition) and MDR reversal IC50 were determined from dose-response curves carried out in triplicate in 96-well plate. Fold of reverse resistance for individual drugs were defined as the IC50 of MDR cells without NSC23925b treatment divided by the IC50 of MDR cells treated with NSC23925b. […] Drug cytotoxicity was assessed in vitro using the MTT assay as previously described. […] Response curves were fitted with use of GraphPad PRISM 4 software (GraphPad Software).
(§3) MCF-7adr and SW480TR cells were treated with paclitaxel (FIGS. 2A-B), doxorubicin (FIGS. 2C-D) or mitoxantrane (FIGS. 2E-F) and NSC23925b in RPMI1640 complete media at the indicated concentrations. The relative sensitivity of each line to the indicated drugs was determined by MTT analysis 6 days post-treatment.

SKOV-3TR = experiment: MTT cytotoxicity assay and reversal of MDR in SKOV-3TR; format: cell-based, human; details: for IC50: Homo sapiens, SKOV3TR, 144 h, without NSC23925b, MTT, 6 days, read-out: IC50 of chemotherapy drug alone; for potency of isomer on reversing drug resistance: with paclitaxel, MTT 6 days post-treatment
Source text: as §1, §2
Structure and activity relationship (SAR) of the four NSC23925 isomers for reversing MDR were evaluated in human ovarian cancer MDR cell line SKOV-3TR by MTT assay (FIGS. 1A-D). Cells were treated with the paclitaxel and NSC23925 diastereomers NSC23925a (FIG. 1A), NSC23925b (FIG. 1B), NSC23925c (FIG. 1C) and NSC23925d (FIG. 1D) in RPMI1640 complete media at the indicated concentrations. The relative sensitivity of each line to paclitaxel was determined by MTT analysis 6 days post-treatment.

SW480TR = experiment: MTT cytotoxicity assay and reversal of MDR in SW480TR; format: cell-based, human; details: Homo sapiens, 144 h, without NSC23925b, MTT, 6 days, read-out: IC50 of chemotherapy drug alone
Source text: as §1, §2, §3

[1] = system: SKOV-3TR xenograft tumors; experiment: SKOV-3TR xenograft tumor growth in nude mice; details: alone; i.p. twice a week for two weeks; paclitaxel 20 mg/kg or NSC23925b 40 mg/kg
Experimental: The Crl:SHO-Prkdc^SCIDHr^hr nude female mice at approximately 3-4 weeks of age were purchased from The Charles River Laboratories (Ann Arbor, Mich.). Animal studies were carried out with protocols approved by the Massachusetts General Hospital Subcommittee on Research Animal Care (SRAC). To determine the effect of NSC23925b on paclitaxel sensitivity in xenograft model, 5×10^6 SKOV-3TR cells were injected subcutaneously with matrigel (BD Biosciences, San Jose, Calif.) on day one. Two weeks after injection, the mice were divided into four groups to start the treatments. Group one was received intraperitoneal (i.p) injection with normal saline, group two with paclitaxel (20 mg/kg), group three with NSC23925b (40 mg/kg). […] All four groups were treated twice a week for two weeks. The health of the mice and evidence of tumor growth were examined daily. Tumors were measured twice a week with a digital caliper. Tumor volume (mm^3) was calculated as (W^2×L)/2, where W is width and L is length. The curve of tumor growth was drawn according to tumor volume by using of GraphPad PRISM 4 software.
To further evaluate the effects of NSC23925b and paclitaxel combination therapy on the tumor growth of resistant cells, the growth of xenograft tumors were examined. A well-characterized ovarian cancer MDR cell line SKOV-3TR was chosen for in vivo studies. […] Tumors were measured twice a week with a digital caliper. Tumor volume (mm^3) was calculated as (W^2×L)/2, where W is width and L is length (FIG. 5A). Representative images of dissected tumor tissues from treated nude mice.

[2] = Solubility in organic solvents; format: physicochemical; details: volume of methanol for 5 milligram

5 milligram solubility in methanol [2] [µL]	SMILES	IC50 (MCF-7adr) [µM]	IC50 (SKOV-3TR) [µM]	IC50 (SW480TR) [µM]	effect on paclitaxel resistant tumor cell growth, single agent [1]	potency of isomer on reversing drug resistance (SKOV-3TR)
150	COc1ccc(-c2cc([C@@H](O)[C@H]3CCCCN3)c3ccccc3n2)cc1.Cl (single isomer, unassigned) [NSC23925c, (2-(4-methoxyphenyl)quinolin-4-yl)(piperidin-2-yl)methanol hydrochloride]	–	–	–	–	modest but lesser activity
650	COc1ccc(-c2cc([C@@H](O)[C@@H]3CCCCN3)c3ccccc3n2)cc1.Cl [NSC23925a, (2-(4-methoxyphenyl)quinolin-4-yl)(piperidin-2-yl)methanol hydrochloride]	–	–	–	–	least potency
150	COc1ccc(-c2cc([C@H](O)[C@@H]3CCCCN3)c3ccccc3n2)cc1.Cl (single isomer, unassigned) [NSC23925d, (2-(4-methoxyphenyl)quinolin-4-yl)(piperidin-2-yl)methanol hydrochloride]	–	–	–	–	modest but lesser activity

More lines, now with the values behind:

SMILES	5 milligram solubility in methanol [2] [µL]	IC50 (MCF-7adr) [µM]	IC50 (SKOV-3TR) [µM]	IC50 (SW480TR) [µM]	effect on paclitaxel resistant tumor cell growth, single agent [1]	potency of isomer on reversing drug resistance (SKOV-3TR)
CC(=O)O[C@H]1C(=O)[C@@]2(C)[C@H]([C@H](OC(=O)c3ccccc3)[C@]3(O)C[C@H](OC(=O)[C@H](O)[C@@H](NC(=O)c4ccccc4)c4ccccc4)C(C)=C1C3(C)C)[C@]1(OC(C)=O)CO[C@@H]1C[C@@H]2O [Paclitaxel, reference compound]	–	0.62 ± 0.12	0.57 ± 0.03	0.12 ± 0.08	no significant effects	–
O=C1c2c(O)ccc(O)c2C(=O)c2c(NCCNCCO)ccc(NCCNCCO)c21 [Mitoxantrane, reference compound]	–	0.32 ± 0.06	0.46 ± 0.06	0.27 ± 0.03	–	–
COc1cccc2c1C(=O)c1c(O)c3c(c(O)c1C2=O)C[C@@](O)(C(=O)CO)C[C@@H]3O[C@H]1C[C@H](N)[C@H](O)[C@H](C)O1 [Doxorubicin, reference compound]	–	3.8 ± 0.12	38.5 ± 2.6	0.84 ± 0.16	–	–
